The values below are quoted from earlier work in patent US11499155B2, “Dynamin 2 inhibitor for the treatment of centronuclear myopathies” (UNIVERSITE DE STRASBOURG, priority 2013, dated 2022).

Usually IC50 stands for the concentration needed to halve the response being measured.

Data set [1] deals with receptor-mediated and synaptic vesicle endocytosis. Particulars: read-out: IC50 for inhibition of receptor-mediated and synaptic vesicle endocytosis.
Another data set concerns mitochondrial division. To be noted: read-out: IC50 (mitochondrial division inhibitor).

Regarding `CCCCCCCCCCCCCC[N+](C)(C)C` [MiTMAB, Tetradecyltrimethylammonium bromide], in data set [1], the IC50 was 2200 nM. `CCCCCCCCCCCCCCCCCC[N+](C)(C)CCN1C(=O)C2C3CCC(O3)C2C1=O` (stereo not shown) [RTIL-13, 4-(N,N-Dimethyl-N-octadecyl-N-ethyl)-4-aza-10-oxatricyclo-[5.2.1]decane-3,5-dione bromide]: the half-inhibitory concentration (IC50) in the data set on Dynamin was 2300 nM. Take `O=C(NN=Cc1cc(O)c(O)cc1O)c1cc2ccccc2cc1O` [Hydroxy-Dynasore, 3-Hydroxy-N′-[(2,4,5-trihydroxyphenyl)methylidene]naphthalene-2-carbohydrazide]: in the data set with Dynamin, the IC50 is 2500 nM. As to `COc1cc(-n2c(S)nc3ccccc3c2=O)c(Cl)cc1Cl` [M-divi 1, 3-(2,4-Dichloro-5-methoxyphenyl)-2-sulfanylquinazolin-4(3H)-one], the half-maximal inhibitory concentration (IC50) in the data set with mitochondrial division is 10000 nM.
